Measurements: patent US3968204A, “Antibiotic A-2315” (priority 1975, dated 1976)
≈ marks a conversion by molar mass, not a printed value.

How the values were obtained:
[1] = test system: Bacteriodes fragilis ssp. fragilis; experiment: MIC, anaerobic bacteria; format: cell-based
Treponema hyodysenteriae = experiment: Agar-dilution MIC, anaerobe; format: cell-based; settings: Brachyspira hyodysenteriae; agar-dilution method; anaerobic
Source text: The A-2315 antibiotics are also active against anaerobic bacteria. In one aspect of this activity, the A-2315 antibiotics are active against Treponema hyodysenteriae, a cause of swine dysentery. The minimal concentrations of A-2315 factors which inhibit this organism, as determined by the agar-dilution method, are as follows: […]

Salmonella typhosa = experiment: Disc-plate MIC; settings: Disc-Plate Method
Electrometric titration = format: physicochemical; settings: 66 percent dimethylformamide in water
Method: Antibiotic A-2315 factor A is a white, amorphous solid, having a molecular weight of 503.2638, as determined by mass spectrometry, and an elemental analysis as follows: 61.51 percent carbon, 7.51 percent hydrogen, 8.69 percent nitrogen, and 21.53 percent oxygen. […] The specific rotation of A-2315 factor A is -132° when determined at a temperature of 27°C. in methanol in which the concentration of the antibiotic is 0.375 percent on a weight per volume basis.
Antibiotic A-2315 factor B is a white, amorphous solid, having a molecular weight of 501, as determined by mass spectrometry, and an elemental analysis as follows: 61.81 percent carbon, 7.02 percent hydrogen, 8.81 percent nitrogen, and 21.42 percent oxygen.
Antibiotic A-2315 factor C is a white, amorphous solid, having a molecular weight of 487, as determined by mass spectrometry, and an elemental analysis as follows: 61.04 percent carbon, 7.00 percent hydrogen, 7.96 percent nitrogen, and 22.61 percent oxygen. Based on elemental analysis and molecular weight, an empirical formula of C25 H33 N3 O7 is assigned to factor C.

[2] = test system: cariogenic filamentous rods; experiment: Broth-dilution growth inhibition of cariogenic organism; format: cell-based; settings: read-out: growth inhibiting concentration (as low as)
Method: (§1) In another aspect of the present invention, the A-2315 antibiotics have the ability to inhibit the growth of microorganisms contributing to the development of periodontal disease. In broth-dilution tests, A-2315 factor A inhibits the growth of the cariogenic organism Streptococcus mutans at concentrations of 1-2 μg/ml and inhibits the growth of cariogenic filamentous rods at a concentration as low as 0.1 μg/ml.

Streptococcus mutans = experiment: as above; format: cell-based; settings: read-out: growth inhibiting concentration
Method: as §1

[3] = test system: Staphylococcus aureus 3074; experiment: Agar-dilution MIC; format: cell-based
Mycoplasma gallisepticum = experiment: Activity in chicks infected with Mycoplasma gallisepticum; format: in vivo, chickens
Method: The antibiotic factor was prepared in polyethylene glycol 200 and injected subcutaneously in the neck.

[4] = test system: Fusobacterium necrophorum; experiment: MIC, anaerobic bacteria; format: cell-based
Propionibacterium acnes = experiment: MIC, anaerobic bacteria; format: cell-based; settings: Cutibacterium acnes
[5] = test system: Staphylococcus aureus 3055; experiment: Protection of mice against experimental bacterial infection; format: in vivo; settings: Staphylococcus aureus, 3055, sc, subcutaneous, two doses
Method: When two doses each of A-2315 factors were administered to mice in illustrative infections, the ED50 values [effective dose in mg/kg to protect 50 percent of the test aninals; see Warren Wick, et al., J. Bacteriol.
^ 2 Infecting challenges: S. aureus 3.16 × LD50 (ip)

Bacillus subtilis = experiment: Disc-plate MIC; settings: Disc-Plate Method
[6] = test system: Mycoplasma gallisepticum isolate 38502 (tylosin sensitive); experiment: Broth-dilution MIC; format: cell-based; settings: Mycoplasmoides gallisepticum
Source text: (§2) Another useful property of the A-2315 antibiotics is activity against Mycoplasma gallisepticum, an organism pathogenic for poultry. Of particular interest is the activity of the A-2315 antibiotics against strains of this organism that are resistant to tylosin. The minimal inhibitory concentrations of A-2315 factor A, as determined by in vitro broth-dilution studies, are summarized in Table V below: […]

[7] = test system: Mycoplasma gallisepticum isolate 41313 (tylosin resistant); experiment: Broth-dilution MIC; format: cell-based; settings: Mycoplasmoides gallisepticum
Source text: as §2

[8] = test system: Mycoplasma gallisepticum isolate 34159 (tylosin resistant); experiment: Broth-dilution MIC; format: cell-based; settings: Mycoplasmoides gallisepticum
Source text: as §2

[9] = test system: Mycoplasma gallisepticum isolate 42854 (tylosin resistant); experiment: Broth-dilution MIC; format: cell-based; settings: Mycoplasmoides gallisepticum
Source text: as §2

[10] = test system: Mycoplasma gallisepticum isolate 43480 (tylosin resistant); experiment: Broth-dilution MIC; format: cell-based; settings: Mycoplasmoides gallisepticum
Source text: as §2

Candida albicans = experiment: Disc-plate MIC; settings: Disc-Plate Method
Ruminal VFA = experiment: Ruminal volatile fatty acids in vivo in fistulated lambs; set-up: species or system sheep; settings: 17 days
Method: Further evidence of the ability of the A-2315 antibiotics to increase feed-utilization efficiency is provided by an in vivo test of A-2315 factor A in sheep, using a procedure as follows:
Two groups of fistulated lambs are allowed slightly more than their normal feed ration for 17 days. Test compound is administered to one group in the feed on a g/ton basis.
The rumen fluids of both groups of animals are sampled on days 3, 7, 10, 14 and 17 of the treatment period.
The fermentation of the ruminal samples is halted by addition of meta-phosphoric acid. Each sample is diluted, centrifuged at 2000 × gravity for 10 minutes; the supernatants are analyzed for volatile fatty acids via the gas chromatographic method of E. S. Erwin, G. J. Marco and E. M. Emery in J. Dairy Sci., 44, 1768 (1966). Molar percentages of ruminal volatile fatty acids are calculated, and the effect is measured as a comparison of the molar percentages of propionic acid in treated animals to those in contemporary controls.

[11] = 3 mg./chick, subcutaneous, at 14 Days, infected controls 7/7
[12] = surviving infected chickens, subcutaneous

SMILES: CC1=CC(O)CC(O)Cc2nc(co2)C(=O)NC(C)C(=O)OC(C(C)C)C(C)C=CC(=O)NCC=C1 (centres unmarked) [Factor A]
- MIC [1]: 128 µg/mL (≈ 254 µM)
- MIC (Treponema hyodysenteriae): < 0.195 µg/mL
- MIC (Salmonella typhosa): 12.5 μg/disc
- titratable groups (Electrometric titration): did not indicate the presence of titratable groups
- MIC [2]: 0.1 µg/mL (≈ 0.199 µM)
- MIC (Streptococcus mutans): 1 to 2 µg/mL (≈ 1.99 to 3.97 µM)
- MIC [3]: 1.56 µg/mL (≈ 3.1 µM)
- No. Died / No. in Group (Mycoplasma gallisepticum; 3 mg./chick, subcutaneous in neck, infected): 12/20
- Dead Chicks: Air-Sac Lesions (Mycoplasma gallisepticum; 3 mg./chick, subcutaneous, 3/9 not examined due to decomposition): 9/9
- Survivors: Air-Sac Lesions (Mycoplasma gallisepticum; [11]): 0/8
- Survivors: MG Antibody (Mycoplasma gallisepticum; [11]): 8/8
- Survivors: Average Weight (Mycoplasma gallisepticum; 3 mg./chick, subcutaneous, at 14 Days, infected controls 100 gm., normal controls 214 gm.): 133 gm.
- signs of toxicity (Mycoplasma gallisepticum; infected chickens, in polyethylene glycol 200, subcutaneous in the neck): No signs of toxicity were seen, except for slight hemorrhage in the neck area in some of the treated chicks that died early
- incidence of air-sac lesions (Mycoplasma gallisepticum; [12]): lowered incidence of air-sac lesions
- weight advantage (Mycoplasma gallisepticum; [12]): some weight advantage
- MIC [4]: 16 µg/mL (≈ 31.8 µM)
- MIC (Propionibacterium acnes): 8 µg/mL (≈ 15.9 µM)
- ED50 ([5]; Test I, challenge 4000 × LD50 (ip)): 90 mg/kg
- ED50 ([5]; Test II, challenge 3.16 × LD50 (ip)): 45.7 mg/kg
- MIC (Bacillus subtilis): 50. μg/disc
- MIC [6]: < 0.097 µg/mL
- MIC [7]: 0.78 µg/mL (≈ 1.55 µM)
- MIC [8]: 0.195 µg/mL (≈ 0.387 µM)
- MIC [9]: 0.195 µg/mL (≈ 0.387 µM)
- MIC [10]: < 0.097 µg/mL
- MIC (Candida albicans): 100.0 μg/disc
- % Increase Over Control (propionic acid) (Ruminal VFA; 15g/ton in feed): 4.8%
- % Increase over Control (butyric acid) (Ruminal VFA; 15g/ton in feed): 2.4%
- Increase Relative to Control (butyric acid) (Ruminal VFA; 15g/ton in feed): 21.6%
- Increase Relative to Control (propionic acid) (Ruminal VFA; 15g/ton in feed): 18.2%
- % Butyric Acid Conc. (Ruminal VFA; 15 g/ton in feed, control 11.1): 13.5%
- % Propionic Acid Conc. (Ruminal VFA; 15g/ton in feed, control 26.2): 31.0%
